Laboratory results published in the supplement of paper PMC10307832.

How the values were obtained:
Assay in all cases: relative viability (nuclei count vs DMSO), 5 days (fraction); higher = more cells survive
Navitoclax = compound: CC1(C)CCC(c2ccc(Cl)cc2)=C(CN2CCN(c3ccc(C(=O)NS(=O)(=O)c4ccc(N[C@H](CCN5CCOCC5)CSc5ccccc5)c(S(=O)(=O)C(F)(F)F)c4)cc3)CC2)C1 [Navitoclax]
Method in brief: (§1)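 Cells of lung cancer lines were placed in 1536-well plates and kept overnight at 37 °C. Pinning then delivered five library-drug doses (not always all listed), spaced by √10, onto plates anchored with vehicle, and the cells were left 5 days without changing medium. One step fixed, permeabilised and stained them with Hoechst, and MetaXpress counted nuclei in 4× images. Viability, as a median over plates, is treated-well nuclei divided by vehicle-well nuclei, with acceptance only at control CV below 25% and at least one doubling.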

C-75 = compound: CCCCCCCC[C@H]1[C@@H](C(=C)C(=O)O1)C(=O)O [C-75]
Method in brief: as §1

AZD7762 = compound: NC(=O)Nc1cc(-c2cccc(F)c2)sc1C(=O)N[C@H]1CCCNC1 [AZD7762]
Method in brief: as §1

[1] = compound: O=C(O)c1ccc(-c2c[nH]c3ncc(-c4ccccc4)cc23)cc1C1CCCC1
Method in brief: as §1

XAV939 = compound: Oc1nc(-c2ccc(C(F)(F)F)cc2)nc2c1CSCC2 [XAV939]
Method in brief: as §1

Row | Cell Line | relative viability (Navitoclax; 0.005 µM) | relative viability (Navitoclax; 0.01581 µM) | relative viability (Navitoclax; 0.05 µM) | relative viability (Navitoclax; 0.1581 µM) | relative viability (Navitoclax; 0.5 µM) | relative viability (Navitoclax; 0.5 µM, anchor plate) | relative viability (C-75; 0.08 µM) | relative viability (C-75; 0.253 µM) | relative viability (C-75; 0.8 µM) | relative viability (C-75; 2.53 µM) | relative viability (C-75; 8 µM) | relative viability (AZD7762; 0.01 µM) | relative viability (AZD7762; 0.03162 µM) | relative viability (AZD7762; 0.1 µM) | relative viability (AZD7762; 0.2 µM, anchor plate) | relative viability (AZD7762; 0.3162 µM) | relative viability (AZD7762; 1 µM) | relative viability ([1]; 0.04 µM) | relative viability ([1]; 0.1265 µM) | relative viability ([1]; 0.4 µM) | relative viability ([1]; 1.265 µM) | relative viability (XAV939; 0.08 µM) | relative viability (XAV939; 0.253 µM) | relative viability (XAV939; 0.8 µM) | relative viability (XAV939; 2.53 µM)
1 | 201T | 1.06 | 1.14 | 0.974 | 0.957 | 1.04 | 1.19 | 1.02 | 1.16 | 0.987 | 0.917 | 0.993 | 0.937 | 1.01 | 1.02 | 0.596 | 0.92 | 0.878 | 0.997 | 1.05 | 0.948 | 1 | 0.96 | 0.808 | 0.762 | 0.846
2 | A549 | 0.974 | 1.05 | 0.999 | 0.956 | 0.935 | 1.23 | 0.944 | 1.14 | 0.874 | 0.83 | 0.913 | 1 | 0.982 | 0.994 |  | 0.974 | 0.507 | 0.957 | 1.03 | 0.99 | 0.818 | 1.05 | 0.798 | 0.911 | 0.811
3 | A-427 | 1.02 | 0.977 | 0.959 | 1 | 1.03 | 0.968 | 1.05 | 0.938 | 0.948 | 0.847 | 0.82 | 0.988 | 1.02 | 1.03 | 0.784 | 0.852 | 0.419 | 1.03 | 1.11 | 0.998 | 0.888 | 1.12 | 0.936 | 0.933 | 0.897
4 | ABC-1 | 0.833 | 0.977 | 0.846 | 0.984 | 0.976 |  | 0.904 | 0.864 | 0.917 | 0.733 | 0.676 | 0.975 | 0.985 | 0.956 | 0.809 | 0.532 | 0.384 | 0.801 | 1.16 | 0.861 | 0.936 | 0.927 | 0.847 | 0.677 | 0.568
5 | BEN | 0.973 | 1.12 | 0.839 | 0.942 |  |  | 1.11 | 1.02 | 0.898 | 0.756 | 0.817 | 1.05 | 0.963 | 0.958 | 0.743 | 0.907 | 0.873 | 0.931 | 1.08 | 1 | 0.935 | 1.01 | 0.869 | 0.897 | 0.835
6 | CAL-12T | 0.935 | 1.05 | 1.01 | 0.985 | 1.01 | 1.14 | 1.06 | 1.15 | 0.859 | 0.922 | 1.08 | 0.993 | 0.982 | 1.06 | 0.646 | 0.724 | 0.241 | 1.08 | 1.17 | 0.914 | 0.734 | 1 | 0.884 | 0.877 | 0.814
7 | COR-L23 | 0.934 | 1.16 | 1.15 | 0.974 | 0.965 | 1.01 | 0.965 | 1.04 | 0.945 | 0.778 | 1.06 | 1.1 | 0.912 | 1.17 |  | 0.854 | 0.231 | 0.921 | 1.01 | 0.973 | 0.723 | 1.11 | 0.92 | 1.01 | 0.928
8 | COR-L 105 | 0.808 | 1.21 | 0.965 | 0.98 | 0.922 | 0.841 | 0.939 | 0.876 | 0.877 | 0.755 | 0.801 | 0.949 | 0.918 | 0.822 |  | 0.613 | 0.502 | 1 | 0.951 | 0.945 | 0.88 | 1.03 | 0.857 | 0.78 | 0.6
9 | Calu-6 | 0.979 | 1.01 | 1.1 | 0.933 | 0.93 | 0.824 | 1.03 | 1.02 | 0.964 | 0.912 | 0.948 | 1.05 | 0.992 | 0.873 |  | 0.475 | 0.145 | 0.982 | 1.01 | 0.955 | 0.78 | 1.07 | 0.904 | 0.985 | 0.944
10 | ChaGo-K-1 | 1.03 | 1.01 | 0.727 | 0.961 | 1.04 | 1.09 | 0.93 | 0.98 | 0.931 | 0.799 | 0.966 | 1.01 | 0.969 | 1.06 | 0.873 | 0.905 | 0.841 | 1.05 | 1.01 | 0.896 | 1.02 | 0.978 | 0.894 | 1.03 | 0.973
11 | EBC-1 | 0.931 | 1.17 | 0.958 | 1.1 | 0.718 | 0.451 | 1.04 | 1.08 | 0.956 | 0.84 | 0.757 | 1.1 | 0.98 | 0.993 |  | 0.939 | 0.576 | 1.02 | 1.14 | 0.923 | 0.633 | 1.05 | 0.901 | 0.882 | 0.817
12 | EKVX | 1.03 | 1.28 | 0.87 | 0.969 | 0.915 | 0.954 | 0.971 | 0.967 | 0.847 |  | 1.02 | 0.947 | 1.03 | 0.929 | 0.696 | 0.962 | 0.8 | 0.962 | 1.14 | 1.01 | 0.865 | 1.04 | 0.852 | 0.833 | 0.694
13 | EMC-BAC-2 | 0.924 | 1.02 | 0.981 | 0.932 | 0.976 | 1.16 | 0.959 | 0.952 | 0.908 | 0.828 | 0.921 | 1.05 | 1.02 | 1.05 | 1.17 | 0.995 | 0.975 | 0.993 | 1.04 | 0.974 | 0.899 | 1.01 | 0.969 | 0.869 | 0.655
14 | EPLC-272H | 0.993 |  | 0.888 | 0.922 | 0.921 | 1.13 | 1.06 | 1.01 | 0.78 | 0.744 | 0.575 | 0.892 | 1.06 | 0.935 | 0.278 | 0.742 | 0.267 | 0.976 | 1.1 | 0.992 | 0.697 | 0.95 | 0.97 | 0.92 | 0.957
15 | H3255 | 0.979 | 1.17 | 0.87 | 0.92 | 0.786 | 0.529 | 0.963 | 0.973 | 0.945 | 0.901 | 0.995 | 1.05 | 1.04 | 1.04 | 0.971 | 0.958 | 0.856 | 0.954 | 1.04 | 0.97 | 0.944 | 1.06 | 0.892 | 0.814 | 0.895
16 | HARA | 0.84 | 1.26 | 0.811 | 0.911 | 1.01 | 1.13 | 0.989 | 0.963 | 0.858 | 0.788 | 1.03 | 0.986 | 0.946 | 0.999 | 0.367 | 0.88 | 0.368 | 0.955 | 1.23 | 0.846 | 1.02 | 1.04 | 0.904 | 0.825 | 0.764
17 | HCC-15 | 0.986 | 1.14 | 0.838 | 0.99 | 0.947 | 0.696 | 1 | 0.965 | 0.968 | 0.798 | 0.925 | 1.02 | 0.907 | 1.02 | 1.24 | 0.969 | 1.03 | 1.03 | 1.07 | 0.965 | 0.586 | 1.14 | 0.932 | 0.96 | 0.971
18 | HCC-44 | 0.897 | 0.906 | 0.977 | 0.849 | 0.96 | 0.98 | 1 | 0.991 | 0.908 | 0.824 | 1.05 | 1.01 | 0.958 | 1.06 | 1 | 0.874 | 0.914 | 0.97 | 0.99 | 0.973 | 0.928 | 0.962 | 0.899 | 0.915 | 0.929
19 | HCC-78 | 1.03 | 1.11 | 0.729 | 0.958 | 1.02 | 0.737 | 0.948 | 0.882 | 0.817 | 0.761 | 0.95 | 1.02 | 1.14 | 0.978 | 0.706 | 0.95 | 0.552 | 0.929 | 1.24 | 1.1 | 0.864 | 0.923 | 0.8 | 0.919 | 0.667
20 | HCC-366 | 1.04 | 1.05 | 0.728 | 0.968 | 1.07 | 1.03 | 0.974 | 1.11 | 0.975 | 0.763 | 0.982 | 0.981 | 1.03 | 0.998 | 0.289 | 0.886 | 0.393 | 1 | 1.02 | 0.998 | 0.971 | 0.971 | 0.9 | 1 | 1.01
21 | HCC-827 | 1.07 | 1.12 | 0.953 | 1.04 | 1.05 | 1.02 | 1.01 | 0.953 | 1.01 | 0.976 | 1.07 | 1.05 | 1.08 | 1.08 | 0.23 | 1.1 | 0.731 | 0.96 | 1.07 | 0.993 | 0.863 | 1.04 | 1.06 | 0.991 | 1.02
22 | HOP-62 | 0.966 | 1.06 | 0.968 | 0.926 | 1.03 | 1 | 1.02 | 1.01 | 1.01 | 0.891 | 1.02 | 1.04 | 0.999 | 1.17 | 0.639 | 1.02 | 0.939 | 1.08 | 1.07 | 0.964 | 0.923 | 1.13 | 0.996 | 0.891 | 0.893
